The text below walks through data of patent US20250101488A1, “RAPID DIAGNOSTIC DRY REAGENT TEST FOR ANTIBIOTIC RESISTANCE, AND METHODS OF USE AND METHODS OF MAKING THEREOF” (BioAmp Diagnostics, Inc., priority 2022, published 2025).

The nature of data set [1]: Aqueous stability: non-selective hydrolysis of the probe, k(hydro). Type of data set: physicochemical. Particulars: for Stability k(hydro): rate of non-selective hydrolysis of the probe and turn on of the DETECT system in the absence of its biomarker target. The protocol:
In order to find use in rapid diagnostic tests, ESBL-targeting probes that had at least the following favorable criteria were evaluated: • 1. Aqueous stability—measured through non-selective hydrolysis • a. Favorable criteria: k(hydro)<0.0062 mM/min • 2. Activity towards target β-lactamase target CTX-M-15—measured using recombinant β-lactamase • a. Favorable criteria: k(β-lactamase)>0.0568 mM/min • 3. Activity towards off-target lower generation β-lactamase (prioritizing the most common, TEM-1b) • a. Favorable criteria: k(TEM-1b)<0.02135 mM/min

Data set [2] concerns cefotaxime (CTX) non-susceptible Gram-negative bacteria (GNB). Nature of the data set: DETECT assay with 96-bacterial isolate panel, ROC curve analysis against cefotaxime (CTX) phenotype. Type of data set: cell-based. Particulars: 2.5×10^6 CFU/mL, DETECT score A405 nm 30 min minus 0 min; for Sensitivity (ROC Curve Analyzed with CTX): 96-bacterial isolate panel (47 CTX susceptible, 49 CTX non-susceptible); for AUC (95% CI) (ROC Curve Analyzed with CTX) / Specificity (ROC Curve Analyzed with CTX): 96-bacterial isolate panel. From the text:
A pool of 5 probe hits were each evaluated using a 96-bacterial isolate panel. In these studies, the 96-bacterial isolate panel was comprised of 47 cefotaxime (CTX) susceptible and 49 CTX non-susceptible, Gram-negative bacteria (GNB). As described above, CTX is a surrogate to detect ceftriaxone susceptibility and, therefore, was applied as the reference phenotype to group true positive, CTX-non-susceptible (include both CTX resistant and intermediate), and true negative, CTX-susceptible. Whole cell suspensions were prepared to yield an experimental concentration of 2.5×10^6 CFU/mL. In a 96-well plate, wells were prepared with all DETECT reagents, except for the targeting probe under investigation. Bacterial suspensions were transferred to the prepared wells of the plate and an initial timepoint was recorded (0 minutes) upon addition of a stock solution of a given probe (Sub-1, (7R)-7-(2-(1H-tetrazol-1-yl)acetamido)-8-oxo-3-((phenylthio)methyl)-5-thia-1-azabicyclo[4.2.0]oct-2-ene-2-carboxylic acid (BAD-5835), (7R)-7-(3-methylisoxazole-5-carboxamido)-8-oxo-3-((phenylthio)methyl)-5-thia-1-azabicyclo[4.2.0]oct-2-ene-2-carboxylic acid (BAD-1468), (7R)-8-oxo-3-((phenylthio)methyl)-7-(2-(pyridin-3-yl)acetamido)-5-thia-1-azabicyclo[4.2.0]oct-2-ene-2-carboxylic acid (BAD-5627), and (7R)-8-oxo-3-((phenylthio)methyl)-7-((S)-piperidine-3-carboxamido)-5-thia-1-azabicyclo[4.2.0]oct-2-ene-2-carboxylic acid (BAD-3462), (7R)-8-oxo-7-(2-phenoxyacetamido)-3-((phenylthio)methyl)-5-thia-1-azabicyclo[4.2.0]oct-2-ene-2-carboxylic acid (BAD-7465)). The absorbance of the wells was collected at 405 nm at 0 and 30 minutes, using a simple benchtop plate reader. The “DETECT Score” values were then calculated for each sample by subtracting the 405 nm absorbance recorded at the 0-minute timepoint from the 30-minute timepoint. Therefore, each sample was identified to have a unique DETECT score that was then can be group into positive and negative phenotype subgroups for threshold value determination via ROC curve analysis.

The target of the next data set is T1, papain (Carica papaya, UniProt P00784).
T1 sequence (P00784 134-345): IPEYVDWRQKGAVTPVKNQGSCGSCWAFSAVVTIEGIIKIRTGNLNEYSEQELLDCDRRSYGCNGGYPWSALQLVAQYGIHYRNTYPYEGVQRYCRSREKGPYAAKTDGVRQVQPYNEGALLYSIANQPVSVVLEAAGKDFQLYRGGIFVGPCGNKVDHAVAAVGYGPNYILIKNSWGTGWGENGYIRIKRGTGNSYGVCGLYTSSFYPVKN
Nature of the data set: Dry reagent test strip, Study 1: papain activation by cysteine, reflectance. Particulars: coating and drying at 37° C.; judged by reflectance of control strip.

A further data set concerns the target recombinant CTX-M-15 (Escherichia coli, UniProt Q9EXV5). As to the kind of experiment: Dry reagent test strip, Study 2: activation by recombinant CTX-M-15, reflectance. The note with it: 1 or 4 nM CTX-M-15, read every 4 minutes for 20 minutes.
For data set [3] the following is noted: cited from earlier work.

Entries after “also recorded” stand apart in the source; their conditions may differ. Like-named read-outs stand apart in the source and are kept apart here.

Chain of recombinant CTX-M-15 (Q9EXV5 entry or part of it): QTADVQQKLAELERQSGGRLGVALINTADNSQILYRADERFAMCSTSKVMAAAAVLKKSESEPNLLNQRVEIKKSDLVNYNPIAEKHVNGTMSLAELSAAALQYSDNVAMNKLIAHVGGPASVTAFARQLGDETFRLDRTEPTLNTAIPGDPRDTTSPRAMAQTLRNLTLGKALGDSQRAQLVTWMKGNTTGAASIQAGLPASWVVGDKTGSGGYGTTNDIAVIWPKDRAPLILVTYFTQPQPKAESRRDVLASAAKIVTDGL
Procedure for papain: The second coating consisted of adding the water-soluble components (buffer salts and papain) and dried a second time in the oven at 37° C. […] Multiple formulation combinations of the DETECT components were examined to determine optimal change of reflectance over time.
Excess solution is removed with glass rods and the paper placed in the oven and dried for 60 minutes at 37° C. In a dry room (relative humidity<20%), the dried filter paper is adhered onto a polyester film support. […] The order of applying the DETECT components typically includes adding the methanol soluble components first followed by the water-soluble components.
Papain activity by cysteine activation was assessed by using two test strips where one received 100 μM cysteine (sample) while the other received buffer (control).
In study 1, different formulations (i.e., different amounts of the papain and BAPA) were used to prepare strips to obtain the highest possible reflectance change when the yellow-colored signal is generated from activating papain (se FIG. 8) and measured with a Konica Minolta reflectance spectrophotometer. […]
Study 1. […] The difference of percent reflectance (% Rscore) between sample and control is determined by subtracting the percent reflectance of the control strip from the sample strip for each time point to yield an increasing % Rscore over time (see FIG. 9A-B).
Procedure for recombinant CTX-M-15: If the small molecule targeting probe was not severely affected by the fabrication process, then in the presence of CTX-M-15, it will be hydrolyzed and liberate the triggering unit to initiate the signaling cascade thus providing the yellow colorimetric response.
The sample test strip received 1 or 4 nM of β-lactamase, while the control received buffer and the reflectance was monitored every 4 minutes for 20 minutes (see FIG. 8B).

In the case of `Cc1cc(C(=O)N[C@@H]2C(=O)N3C(C(=O)O)=C(CSc4ccccc4)CSC23)on1` (stereo partly drawn) [BAD-1468, (7R)-7-(3-methylisoxazole-5-carboxamido)-8-oxo-3-((phenylthio)methyl)-5-thia-1-azabicyclo[4.2.0]oct-2-ene-2-carboxylic acid], the “Stability k(hydro)” value in data set [1] was determined as 0.00198 M/min. In data set [2], the “Sensitivity (ROC Curve Analyzed with CTX)” value (shortened to “Sensitivity”) was 0.8406, the “AUC (95% CI) (ROC Curve Analyzed with CTX)” value (from here on “AUC (95% CI)”) is 0.8846 and the “Specificity (ROC Curve Analyzed with CTX)” value (from here on “Specificity”) is 0.8519.
The matching figures for `O=C(O)C1=C(CSc2ccccc2)CSC2[C@H](NC(=O)[C@H]3CCCNC3)C(=O)N12` (stereo partly drawn) [BAD-3462, (7R)-8-oxo-3-((phenylthio)methyl)-7-((S)-piperidine-3-carboxamido)-5-thia-1-azabicyclo[4.2.0]oct-2-ene-2-carboxylic acid]: 0.00558 M/min, 0.8116, 0.8717 and 0.8519.
The like results for `O=C(Cc1cccnc1)N[C@@H]1C(=O)N2C(C(=O)O)=C(CSc3ccccc3)CSC12` (stereo partly drawn) [BAD-5627, (7R)-8-oxo-3-((phenylthio)methyl)-7-(2-(pyridin-3-yl)acetamido)-5-thia-1-azabicyclo[4.2.0]oct-2-ene-2-carboxylic acid] were, in that order, 0.00352 M/min, 0.9275, 0.9614 and 0.9259.
With `O=C(Cn1cnnn1)N[C@@H]1C(=O)N2C(C(=O)O)=C(CSc3ccccc3)CSC12` (stereo partly drawn) [BAD-5835, (7R)-7-(2-(1H-tetrazol-1-yl)acetamido)-8-oxo-3-((phenylthio)methyl)-5-thia-1-azabicyclo[4.2.0]oct-2-ene-2-carboxylic acid], the “Stability k(hydro)” value in data set [1] amounted to 0.0044 M/min. Moreover, the “stability of the probe to the test strip fabrication process” value on papain is reported as “did NOT decompose; also recorded: did not show any sign of degradation”. Further, in data set [2], the “Sensitivity” value is reported as 0.8823, the “AUC (95% CI)” value worked out at 0.9586 and the “Specificity” value is 0.9259. For the same compound, on recombinant CTX-M-15, the “detection of recombinant CTX-M-15 on test strip (change in reflectance)” value is “retained its ability to detect the presence of CTX-M-15; also recorded: significant change in reflectance”.
With `O=C(COc1ccccc1)N[C@@H]1C(=O)N2C(C(=O)O)=C(CSc3ccccc3)CSC12` (stereo partly drawn) [BAD-7465, (7R)-8-oxo-7-(2-phenoxyacetamido)-3-((phenylthio)methyl)-5-thia-1-azabicyclo[4.2.0]oct-2-ene-2-carboxylic acid], in data set [1], the “Stability k(hydro)” value was determined as 0.00161 M/min. For the same compound, in data set [2], the “Sensitivity” value is listed as 0.7143, the “AUC (95% CI)” value came out at 0.7717 and the “Specificity” value worked out at 0.8077.
Turning to `O=C(Cc1ccccc1)N[C@@H]1C(=O)N2C(C(=O)O)=C(CSc3ccccc3)CSC12` (stereo partly drawn) [Sub-1, (7R)-8-oxo-7-(2-phenylacetamido)-3-((phenylthio)methyl)-5-thia-1-azabicyclo[4.2.0]oct-2-ene-2-carboxylic acid, reference compound], in data set [1], the “stability and promiscuity characteristics for rapidly detecting ceftriaxone non-susceptibility directly from urine” value is “not adequate”; the “Stability k(hydro)” value was 0.0062 M/min. Further, in data set [2], the “Sensitivity” value came out at 0.9206, the “AUC (95% CI)” value turned out to be 0.7717 and the “Specificity” value worked out at 0.8125.
With `Nc1ccc([N+](=O)[O-])cc1` [p-nitroaniline], the extinction coefficient in data set [3] (absorbance wavelength of 405 nm) is reported as 9,767 M-1 cm^−1.
As for `O=c1ccc2nc3ccc(O)cc3oc-2c1` [resorufin], the extinction coefficient in data set [3] (absorbance wavelength of 570 nm) is listed as 56,000 M^1 cm^−1. The “fluorescent quantum yield (ϕ)” value in data set [3] (in water) is recorded as 0.74.
